These compounds were tested against T1, AHR (UniProt P35869) (assay: DRE-Luciferase Reporter Assay (Alternate Method, Example 1B)). Conditions: alternate method: compound and agonist added at plating or after overnight incubation; murine (Hepa1-6, Hepa-1c1c7) or human (HepG2) DRE-luciferase reporter cells, cell line used not stated.
T1 sequence (P35869 1-848): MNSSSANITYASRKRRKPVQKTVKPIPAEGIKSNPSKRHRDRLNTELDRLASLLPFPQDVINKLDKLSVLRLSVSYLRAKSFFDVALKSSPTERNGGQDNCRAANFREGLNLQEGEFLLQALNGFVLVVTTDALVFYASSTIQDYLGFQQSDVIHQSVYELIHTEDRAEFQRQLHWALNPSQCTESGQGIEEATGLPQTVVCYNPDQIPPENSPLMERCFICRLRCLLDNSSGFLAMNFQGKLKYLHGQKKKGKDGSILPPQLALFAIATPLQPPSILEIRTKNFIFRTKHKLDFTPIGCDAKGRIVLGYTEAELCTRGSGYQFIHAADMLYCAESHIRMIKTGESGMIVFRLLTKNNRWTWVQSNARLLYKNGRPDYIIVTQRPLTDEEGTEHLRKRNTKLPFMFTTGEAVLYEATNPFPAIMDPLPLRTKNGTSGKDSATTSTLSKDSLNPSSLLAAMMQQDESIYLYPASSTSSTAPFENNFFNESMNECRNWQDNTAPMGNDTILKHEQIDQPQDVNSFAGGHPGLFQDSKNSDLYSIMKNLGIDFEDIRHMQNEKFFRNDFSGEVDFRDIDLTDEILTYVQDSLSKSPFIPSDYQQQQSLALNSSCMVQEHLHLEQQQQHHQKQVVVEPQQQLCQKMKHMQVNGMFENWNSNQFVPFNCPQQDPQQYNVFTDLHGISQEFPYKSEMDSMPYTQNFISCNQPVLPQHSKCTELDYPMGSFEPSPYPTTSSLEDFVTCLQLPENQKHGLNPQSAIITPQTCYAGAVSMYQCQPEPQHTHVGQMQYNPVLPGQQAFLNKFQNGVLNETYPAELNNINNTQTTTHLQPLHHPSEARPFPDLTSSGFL
Type: cell-based
Design: IC50; other: alternate method: compound and agonist added at plating or after overnight incubation; murine (Hepa1-6, He)
Experimental: AHR binds to Dioxin Responsive Elements (DRE) upstream of genes that it activates. One measure of AHR activity is activation of a reporter gene, such as luciferase, downstream of one or multiple DRE elements. Luciferase activity will reflect activation and inhibition of AHR in the cells expressing his reporter.
Murine Hepa1-6 or Hepa-1c1c7 or other murine cell line with a DRE-luciferase reporter either stably or transiently transfected were plated in media in plates (96-well, 384-well or other plates) and incubated overnight at 37° C. in a CO2 incubator or compound and agonist were added at the time of plating. Likewise, human HepG2 or other human cell line with a DRE-luciferase reporter either stably or transiently transfected were plated in media in plates (96-well, 384-well or other plates) and incubated overnight at 37° C. in a CO2 incubator or compound and agonist were added at the time of plating.
At the time that cells are plated or following incubation overnight, an AHR activating ligand, such as TCDD, kynurenine, ITE (2-(1H-indole-3-ylcarbonyl)-4-thiazolecarboxylic methyl ester), VAF347, BNF (beta-naphthoflavone), FICZ (6-formylindolo(3,2-b) carbazole or other AHR ligands, was added with or without AHR antagonist.
Cells were incubated for 4, 15 or 24 hours or another time point and then lysed for determination of luciferase activity as a read-out of the AHR activation or inhibition. Luciferase was measured with a commercial kit such as the Promega Luciferase kit or any kit or reagents that provide the luciferin substrate for measuring luciferase activity. The level of luciferase with only activating ligand added was the maximum signal while the luciferase with no ligand was the minimum signal. IC50 values were determined as the concentration which inhibits half of the luciferase activity.

SMILES	IC50 [µM]
Cn1nccc1C(=O)Nc1ccc2cc(-c3nccs3)cnc2c1 [I-44, 2-Methyl-N-(3-thiazol-2-yl-7-quinolyl)pyrazole-3-carboxamide]	< 0.5
Cn1nccc1C(=O)Nc1ccc2cc(-c3ncco3)cnc2c1 [I-45, 2-Methyl-N-(3-oxazol-2-yl-7-quinolyl)pyrazole-3-carboxamide]	0.5 to 1
Cn1nccc1C(=O)Nc1ccc2cc(-c3cccs3)cnc2c1 [I-46, 2-Methyl-N-[3-(2-thienyl)-7-quinolyl]pyrazole-3-carboxamide]	< 0.5
CC(=O)Nc1ccc2cc(-c3ccccc3)cnc2c1 [I-47, N-(3-Phenyl-7-quinolyl)acetamide]	> 1.5
Cn1nccc1C(=O)Nc1ccc2cc(-c3ccsc3)cnc2c1 [I-48, 2-Methyl-N-[3-(3-thienyl)-7-quinolyl]pyrazole-3-carboxamide]	< 0.5
Cn1nccc1C(=O)Nc1ccc2cc(C3CCCCC3)cnc2c1 [I-49, N-(3-Cyclohexyl-7-quinolyl)-2-methyl-pyrazole-3-carboxamide]	> 1.5
Cn1nccc1C(=O)Nc1ccc2cccnc2c1 [I-50, 2-Methyl-N-(7-quinolyl)pyrazole-3-carboxamide]	> 1.5
Cc1ccccc1-c1cnc2cc(NC(=O)c3ccnn3C)ccc2c1 [I-51, 2-Methyl-N-[3-(o-tolyl)-7-quinolyl]pyrazole-3-carboxamide]	< 0.5
Cc1ccccc1-c1ccc2cc(NC(=O)c3ccnn3C)ccc2c1 [I-52, 2-Methyl-N-[6-(o-tolyl)-2-naphthyl]pyrazole-3-carboxamide]	> 1.5
Cc1cc(C#Cc2cccc3c2OCO3)ccc1NC(=O)c1ccnn1C [I-53, N-[4-[2-(1,3-Benzodioxol-4-yl)ethynyl]-2-methyl-phenyl]-2-methyl-pyrazole-3-carboxamide]	> 1.5
Cc1cc(C#CC2CCCCC2)ccc1NC(=O)c1ccnn1C [I-54, N-[4-(2-Cyclohexylethynyl)-2-methyl-phenyl]-2-methyl-pyrazole-3-carboxamide]	> 1.5
Cc1cc(C#Cc2ccncc2)ccc1NC(=O)c1ccnn1C [I-55, 2-Methyl-N-[2-methyl-4-[2-(4-pyridyl)ethynyl]phenyl]pyrazole-3-carboxamide]	> 1.5
Cc1cc(C#Cc2cccnc2)ccc1NC(=O)c1ccnn1C [I-56, 2-Methyl-N-[2-methyl-4-[2-(3-pyridyl)ethynyl]phenyl]pyrazole-3-carboxamide]	> 1.5
Cc1cc(C#CC2CCNCC2)ccc1NC(=O)c1ccnn1C [I-57, 2-Methyl-N-[2-methyl-4-[2-(4-piperidyl)ethynyl]phenyl]pyrazole-3-carboxamide]	> 1.5
Cc1cc(C#Cc2ccccn2)ccc1NC(=O)c1ccnn1C [I-58, 2-Methyl-N-[2-methyl-4-[2-(2-pyridyl)ethynyl]phenyl]pyrazole-3-carboxamide]	> 1.5
Cn1nccc1C(=O)Nc1ccc(C#Cc2ccccc2)c2c1OCO2 [I-59, 2-Methyl-N-[7-(2-phenylethynyl)-1,3-benzodioxol-4-yl]pyrazole-3-carboxamide]	> 1.5
COc1cc(C#Cc2ccccc2)ccc1NC(=O)c1ccnn1C [I-60, N-[2-Methoxy-4-(2-phenylethynyl)phenyl]-2-methyl-pyrazole-3-carboxamide]	> 1.5
CC#Cc1ccc(NC(=O)c2ccnn2C)c(C)c1 [I-61, 2-methyl-N-(2-methyl-4-prop-1-ynyl-phenyl)pyrazole-3-carboxamide]	> 1.5
Cn1nccc1C(=O)Nc1ccc(C#Cc2ccccc2)cc1C(F)(F)F [I-62]	> 1.5
Cn1nccc1C(=O)Nc1ccc(C#Cc2ccccc2)cc1 [I-63, 2-Methyl-N-[4-(2-phenylethynyl)phenyl]pyrazole-3-carboxamide]	> 1.5
COc1ccccc1C#Cc1ccc(NC(=O)c2ccnn2C)c(C)c1 [I-64]	> 1.5
Cn1nccc1C(=O)Nc1ccc2nc(-c3ccccc3)cnc2c1 [I-65]	0.5 to 1
Cc1cc(/C=C/c2ccccc2)ccc1N(C)C(=O)c1ccnn1C [I-66]	0.5 to 1

SMILES	IC50 [µM]
Cn1nccc1C(=O)Nc1cnc2cc(-c3ccccc3)ccc2c1 [I-67]	0.5 to 1
Cc1c(NC(=O)c2ccnn2C)ccc2nc(-c3ccccc3)ccc12 [I-68]	> 1.5
Cc1ccccc1-c1cnc2ccc(NC(=O)c3ccnn3C)c(C)c2c1 [I-69]	> 1.5
Cn1nccc1C(=O)Nc1ccc2cc(-c3ccccc3)cnc2c1 [I-70]	< 0.5
Cc1cc(C2CC2c2ccccc2)ccc1NC(=O)c1ccnn1C (stereo not drawn) [I-71]	> 1.5
Cc1ccccc1-c1ccc2c(C)c(NC(=O)c3ccnn3C)ccc2n1 [I-72]	> 1.5
Cc1ccccc1/C=C/c1ccc(C(=O)Nc2ccnn2C)c(C)c1 [I-73]	> 1.5
Cc1cc(/N=N/c2cccc3cccnc23)ccc1NC(=O)c1ccnn1C [I-74]	> 1.5
Cc1cc(/N=N/c2cccc3ccccc23)ccc1NC(=O)c1ccnn1C [I-75]	0.5 to 1
CC(C)n1nccc1C(=O)Nc1ccc2cc(-c3ccccc3)cnc2c1 [I-76, 2-Isopropyl-N-(3-phenyl-7-quinolyl)pyrazole-3-carboxamide]	> 1.5
Cn1nccc1C(=O)Nc1ccc2c(=O)n(-c3ccccc3)cnc2c1 [I-77, 2-Methyl-N-(4-oxo-3-phenyl-quinazolin-7-yl)pyrazole-3-carboxamide]	> 1.5
O=C(Nc1ccc2cc(-c3ccccc3)cnc2c1)c1ccn[nH]1 [I-78, N-(3-Phenyl-7-quinolyl)-1H-pyrazole-5-carboxamide]	0.5 to 1
Cn1cncc1C(=O)Nc1ccc2cc(-c3ccccc3)cnc2c1 [I-79, 3-Methyl-N-(3-phenyl-7-quinolyl)imidazole-4-carboxamide]	> 1.5
Cn1nccc1C(=O)Nc1ccc2cc(-c3ccc(N4CCOCC4)cc3)cnc2c1 [I-80, 2-Methyl-N-[3-(4-morpholinophenyl)-7-quinolyl]pyrazole-3-carboxamide]	> 1.5
Cn1nccc1C(=O)Nc1ccc2cc(-c3ccccc3O)cnc2c1 [I-81, N-[3-(2-Hydroxyphenyl)-7-quinolyl]-2-methyl-pyrazole-3-carboxamide]	1 to 1.5
Cn1nccc1C(=O)Nc1ccc2cc(-c3cccc(O)c3)cnc2c1 [I-82, N-[3-(3-Hydroxyphenyl)-7-quinolyl]-2-methyl-pyrazole-3-carboxamide]	1 to 1.5
Cn1nccc1C(=O)Nc1ccc2cc(-c3ccccc3N3CCOCC3)cnc2c1 [I-83, 2-Methyl-N-[3-(2-morpholinophenyl)-7-quinolyl]pyrazole-3-carboxamide]	> 1.5
Cn1nccc1C(=O)Nc1ccc2cc(-c3cccc(C(F)(F)F)c3)cnc2c1 [I-84, 2-Methyl-N-[3-[3-(trifluoromethyl)phenyl]-7-quinolyl]pyrazole-3-carboxamide]	< 0.5
Cn1nccc1C(=O)Nc1ccc2cc(-c3cccc(N4CCOCC4)c3)cnc2c1 [I-85, 2-Methyl-N-[3-(3-morpholinophenyl)-7-quinolyl]pyrazole-3-carboxamide]	> 1.5
Cn1nccc1C(=O)Nc1ccc2cc(-c3ccc(O)cc3)cnc2c1 [I-86, N-[3-(4-Hydroxyphenyl)-7-quinolyl]-2-methyl-pyrazole-3-carboxamide]	> 1.5
Cn1nccc1C(=O)Nc1ccc2cc(-c3ccc(C(F)(F)F)cc3)cnc2c1 [I-87, 2-Methyl-N-[3-[4-(trifluoromethyl)phenyl]-7-quinolyl]pyrazole-3-carboxamide]	> 1.5
Cn1nccc1C(=O)Nc1ccc2cc(-c3ccccc3C(F)(F)F)cnc2c1 [I-88, 2-Methyl-N-[3-[2-(trifluoromethyl)phenyl]-7-quinolyl]pyrazole-3-carboxamide]	> 1.5

Reference: patent US11555026B2, “AHR inhibitors and uses thereof” (Ikena Oncology, Inc., priority 2017, dated 2023)
